Experiments:
Assay type in all cases: cell-based, human
[1] = test system: MG-63 cells; assay: MG-63 proliferation on reference surfaces with strontium (NucleoCounter); settings: 0.5 mM strontium on reference surface 1, 7 days, compared to unstimulated reference surfaces 1 and 2
Description: Sterilized (β-radiation) Ti coins with reference surfaces 1 and 2, respectively were placed in 24 well plates. MG-63 cells were subcultured onto the coins in the 24 well plates at a plating density of 10 000 cells/cm^2, in total 20 000 cells/well. Sterile filtered Sr(NO3)2 at final concentrations of 5 mM and 0.5 mM (pH 5.2) was added to the respective wells. Untreated cells were used as controls. Cells were cultured for 7 days at a temperature of 37° C. in an atmosphere of 5% CO2 and 100% humidity.
The total number of cells in each well (×10^5) after each time period was determined by the NucleoCassette method by the NucleoCounter (ChemoMetec A/S Denmark).
The number of cells was investigated by lysis of the cells in “Reagent A” having a pH of 1.25 following stabilization by “Reagent B”. In the NucleoCassette, propidium iodide was incorporated which targets the amount of released DNA. The cassette was placed in the NucleoCounter and the amount of measured fluorochrome corresponded to the amount of DNA. The instructions from the manufacturer were followed (Chemometec A/S, Denmark).

[2] = test system: MG-63 cells; assay: Production of alkaline phosphatase (ALP) by MG-63 cells with Sr(NO3)2 added to the wells
Description: MG-63 is a human cell line (ATCC No CRL-1427, U.S.) conventionally used in the art for in vitro studies of osteoblasts.
In this study, MG-63 cells were obtained from frozen cells in second passage and further cultured in Dulbecco's modified Eagle's medium (DMEM) containing FCS 5%, PEST 1%, Gibco, UK) in 37° C. in an atmosphere of 5% CO2 and 100% humidity. When the cells reached confluence they were subcultured by the use of 0.05% Trypsin-EDTA (Gibco, UK) until the amount of cells were obtained.
In order to study the effect of strontium on the production of alkaline phosphatase (ALP), MG-63 cells prepared in reference example 1 were subcultured into 24 well plates at a plating density of 10 000 cells/cm^2, in total 20 000 cells/well. Sterile filtered Sr(NO3)2 at final concentrations of 10 mM, 5 mM, 3 mM, and 1 mM respectively (pH 5.2) were added to the respective wells of the plate. Untreated cells were used as controls. Cells were cultured for 3, 7 and 14 days at a temperature of 37° C. in an atmosphere of 5% CO2 and 100% humidity.
(§1) At harvest, the cell culture medium was analysed with respect to the ALP content. The intracellular ALP was measured by cell lysis according to the instructions of the manufacturer (SenzoLyte™ pNPP Alkaline Phosphatase Assay Kit Colorimetric BioSite, Sweden). The absorption was set at 405 nm by an automatic plate reader (Vmax, Molecular Device, UK). By comparing the optical density of the samples with the standard provided with the kit, the ALP concentrations could be determined. The instructions from the manufacturer were followed (BioSite, Sweden).

[3] = test system: MG-63 cells; assay: ALP production on reference surfaces; settings: 0.5 mM strontium on reference surface 1, after 7 days of cell culture
Description: as §1
The production of ALP on reference surface 1 comprising a concentration of 0.5 mM strontium was compared with unstimulated reference surfaces 1 and 2.

O=[N+]([O-])[O-].O=[N+]([O-])[O-].[Sr+2] [strontium, Sr(NO3)2]
MG-63 cell proliferation, rank [1]: highest MG-63 cell proliferation | amount of ALP, rank among concentrations ([2]; 3 mM strontium, after 14 days of culturing): highest amount of ALP | production of ALP compared to control ([2]; after 7 days of culture): small increase | ALP levels compared to control ([2]; after 14 days, especially at Sr concentrations 1 mM and 3 mM): remarkably increased | production of ALP compared to control (unstimulated cells) ([2]; initially (3 days), all strontium concentrations (1, 3, 5, 10 mM), polystyrene): initially slow | production of ALP compared with unstimulated reference surfaces 1 and 2 [3]: increased production of ALP
